Usually IC50 stands for the point on the concentration scale where inhibition reaches its midpoint. Low readings indicate higher potency, high ones lower potency.

In experiment [1] the test system is PC-3. The experiment in a line: Cytotoxicity against human PC3 cells by sulforhodamine B assay. In kind it is functional, cell-based. A general note: Sulforhodamine B stains cellular protein and so reports cell mass.
The test system of experiment [2] is HCT-116. Put plainly: Cytotoxicity against human HCT116 cells by sulforhodamine B assay. In kind it is functional, cell-based.
The target in experiment [3] is Rho-associated protein kinase 2 (Homo sapiens, UniProt O75116). Put plainly: Inhibition of ROCK2 (unknown origin) using SKT S2 as substrate measured after 30 mins by HTRF assay. On the technique in general: Time-resolved FRET reads energy transfer from a long-lived donor to a nearby acceptor.
Chain of Rho-associated protein kinase 2 (O75116 whole entry): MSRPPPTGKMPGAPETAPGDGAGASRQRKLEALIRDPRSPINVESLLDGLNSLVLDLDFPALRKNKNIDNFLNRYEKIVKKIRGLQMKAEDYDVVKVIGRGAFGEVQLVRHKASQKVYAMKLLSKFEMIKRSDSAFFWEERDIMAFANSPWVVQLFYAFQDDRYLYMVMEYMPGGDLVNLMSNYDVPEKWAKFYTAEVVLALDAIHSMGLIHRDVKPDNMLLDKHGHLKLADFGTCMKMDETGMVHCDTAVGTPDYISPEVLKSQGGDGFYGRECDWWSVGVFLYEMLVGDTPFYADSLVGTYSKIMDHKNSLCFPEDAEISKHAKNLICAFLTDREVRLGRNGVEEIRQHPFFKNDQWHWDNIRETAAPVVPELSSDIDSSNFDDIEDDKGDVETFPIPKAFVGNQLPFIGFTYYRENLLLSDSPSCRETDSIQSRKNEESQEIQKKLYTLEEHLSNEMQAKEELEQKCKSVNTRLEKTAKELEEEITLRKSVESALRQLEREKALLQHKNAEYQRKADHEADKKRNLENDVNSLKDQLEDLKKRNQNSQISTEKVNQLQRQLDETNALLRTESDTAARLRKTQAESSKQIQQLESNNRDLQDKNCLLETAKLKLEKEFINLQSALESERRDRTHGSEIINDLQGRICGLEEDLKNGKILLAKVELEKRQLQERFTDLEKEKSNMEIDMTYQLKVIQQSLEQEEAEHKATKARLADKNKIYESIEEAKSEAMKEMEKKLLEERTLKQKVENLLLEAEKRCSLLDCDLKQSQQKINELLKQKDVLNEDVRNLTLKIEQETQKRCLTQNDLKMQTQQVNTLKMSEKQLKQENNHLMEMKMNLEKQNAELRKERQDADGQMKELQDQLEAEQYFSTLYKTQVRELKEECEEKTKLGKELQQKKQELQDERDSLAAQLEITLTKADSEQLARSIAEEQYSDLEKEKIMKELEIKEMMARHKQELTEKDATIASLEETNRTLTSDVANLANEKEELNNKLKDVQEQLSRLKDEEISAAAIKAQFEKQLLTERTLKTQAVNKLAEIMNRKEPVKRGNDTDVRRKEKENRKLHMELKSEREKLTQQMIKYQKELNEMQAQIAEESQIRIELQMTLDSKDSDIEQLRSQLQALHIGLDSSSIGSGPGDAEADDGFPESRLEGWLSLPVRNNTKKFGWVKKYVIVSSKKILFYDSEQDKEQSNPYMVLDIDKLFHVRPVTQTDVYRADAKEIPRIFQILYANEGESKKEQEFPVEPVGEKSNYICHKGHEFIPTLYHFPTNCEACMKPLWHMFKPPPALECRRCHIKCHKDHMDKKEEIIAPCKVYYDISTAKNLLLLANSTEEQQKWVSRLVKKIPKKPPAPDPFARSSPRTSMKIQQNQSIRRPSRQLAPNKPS

For the compound `CC(/C=C/C1CC1)=C\[C@H]1[C@H](O)[C@@](C)(O)[C@H]2[C@H](O)[C@@H](O)CCN12`, the IC50 in experiment [1] amounted to 0.52 µM; in experiment [2], 8.3 µM; in experiment [3], 7 µM.

Turning to `CC(/C=C/C1CC1)=C\[C@H]1[C@H](O)[C@@](C)(O)c2c(O)ccc[n+]21`, the IC50 in experiment [1] is > 40 µM; in experiment [2] it was > 40 µM; in experiment [3], 27 µM.

Take `CC(/C=C/C1CC1)=C\[C@H]1[C@H](O)[C@@](C)(O)[C@H]2[C@H](O)[C@@H](Cl)CCN12`: the half-inhibitory concentration (IC50) in experiment [1] is 33 µM; in experiment [2] it was 40 µM; in experiment [3], > 100 µM.

Regarding `C/C(=C\C=C\CCO)C[C@H]1[C@H](O)[C@@](C)(O)[C@H]2[C@H](O)[C@@H](Cl)CCN12`, the IC50 was 17 µM in experiment [1], > 40 µM in experiment [2] and 42 µM in experiment [3].

In the case of `CC(/C=C/C1CC1)=C\[C@H]1[C@H](O)[C@@](C)(O)[C@H]2CCCCN12`, the figures for the IC50 in experiment [1], in experiment [2] and in experiment [3] were > 40 µM, > 40 µM and > 100 µM, respectively.

Take `C/C(=C\C=C\CCO)C[C@H]1[C@H](O)[C@@](C)(O)[C@H]2CCCCN12`: the values for the IC50 in experiment [1], in experiment [2] and in experiment [3] were > 40 µM, > 40 µM and > 100 µM, respectively.

On to `CC(/C=C/C1CC1)=C\[C@H]1[C@H](O)[C@@](C)(O)[C@H]2[C@@H]3O[C@@H]3CCN12`, for which the IC50 was 23 µM in experiment [1], 28 µM in experiment [2] and > 100 µM in experiment [3].

Consider `CC(/C=C/C1CC1)=C\[C@H]1[C@H](O)[C@@](C)(O)c2cccc[n+]21`, for which the IC50 in experiment [1] was > 40 µM; in experiment [2] it was > 40 µM; in experiment [3], > 100 µM.

On to `C/C(=C/C=C/CCO)C[C@H]1[C@H](O)[C@@](C)(O)[C@H]2[C@H](O)[C@@H](Cl)CCN12`, for which the values for the half-inhibitory concentration (IC50) in experiment [1], in experiment [2] and in experiment [3] were > 40 µM, > 40 µM and 39 µM, respectively.

Regarding `CN[C@@H]1C[C@H]2O[C@@](C)([C@@H]1OC)n1c3ccccc3c3c4c(c5c6ccccc6n2c5c31)C(=O)NC4` [STAUROSPORINE], the IC50 in experiment [1] worked out at 0.017 µM.

These data come from ChEMBL document CHEMBL4138283, “Cyclizidine-Type Alkaloids from Streptomyces sp. HNA39” (J Nat Prod, 2018).
